Measurements published in article PMC7083800, “Production and characterization of Aspergillus niger GH29 family α-fucosidase and production of a novel non-reducing 1-fucosyllactose” (Glycoconjugate Journal, 2019).

System: T1, A. niger GH29 α-fucosidase (long version, pPFucA-L)
T1 construct: gene FucA; C-terminal His-tag kept; codon-optimized, secreted from Pichia pastoris
Test: pNP release, absorbance at […] nm
Format: biochemical, Aspergillus niger
Conditions: 50 mM Na-acetate buffer assay, pH 3.6, 45 °C; 0.05-3 mM substrate; read-out: apparent Km

Km: 390 µM
Structure (SMILES): C[C@@H]1O[C@@H](Oc2ccc([N+](=O)[O-])cc2)[C@@H](O)[C@H](O)[C@@H]1O [pNP-fucose, 4-Nitrophenyl α-L-fucopyranoside]
